Common to all, as to format: cell-based, mouse
Assay [1] deals with GLI1 mRNA expression. The assay can be described thus: RT-qPCR GLI1 mRNA expression in OHCs-stimulated C3H10T1/2 MEFs. The settings on record: for % Gli1 Expression: C3H10T1/2 MEFs, 10 μM, relative to Hh-agonist OHCs (set as 100%). On the procedure: (§1) ASZ001 and Sufu-KO cells were seeded in 96-well plates (10,000/well, 100 μL) and incubated overnight under growth conditions. On the second day, ‘growth’ media was removed and replaced by ‘assay’ media (100 μL). On the third day, cells were treated with a serial dilution of drugs or DMSO for 48 h. mRNA expression was determined through Taqman Fast Cells-to-CT Kit (#4399003) per the manufacturer's instructions. In brief, cells were washed with chilled PBS, then mixed with lysis solution containing DNase I and incubated at RT for 5 min. Stop solution was then added to quench the lysis reagents. cDNA was then synthesized through a BioRad MyCycler following addition of reverse transcriptase. Finally, the cDNA was amplified through an ABI 7500 system following addition of Taqman Fast Universal PCR Master Mix and Taqman Gene Expression Primer. Relative gene expression levels were computed by the ΔΔCt method. Values represent mRNA expression relative to DMSO control (set at 1.0). Data were analyzed using GraphPad Prism, and IC50 values are the mean±SEM for at least two separate experiments performed in triplicate. Primers used are as follows: mouse ActB (Mm00607939_s1); mouse GLI1 (Mm00494645_ml); mouse Gli2 (Mm01293117_ml); mouse Ptch1 (Mm00436026_ml); mouse Hhip (Mm00469580_ml).
C3H10T1/2 MEFs were seeded in 24-well plates (50,000/well, 500 μL). Following 24 h incubation, the ‘growth’ media was removed and replaced with ‘assay’ media (500 μL). On the third day, cells were treated with either DMSO, OHCs, or OHCs+drugs. Following a 24 h incubation, gene expression analysis was carried out following identical protocols as described above.
A general note: In qPCR the cycle at which signal appears reflects the starting amount.

Assay [2] deals with GLI1 mRNA expression. The assay can be described thus: RT-qPCR GLI1 mRNA expression in Sufu-KO MEFs. On the procedure: as §1
In assay [3] the test system is GLI1 mRNA expression. The assay can be described thus: RT-qPCR GLI1 mRNA expression in ASZ001 BCC cells. The protocol: as §1
[4] abbreviates: Table 2, mean ± SEM, read-out: GLI1 mRNA expression, IC50 C3H10T1/2.
Setting [5] is: Table 2, mean ± SEM, read-out: GLI1 mRNA expression, IC50 Sufu-KO.
Where [6] appears, read: Table 2, mean ± SEM, read-out: GLI1 mRNA expression, IC50 ASZ001.
The mark [7] stands for this setting: Table 4, racemates and enantiomers, mean ± SEM, read-out: RT-qPCR, IC50 C3H10T1/2.
[8] abbreviates: Table 4, racemates and enantiomers, mean ± SEM, read-out: RT-qPCR, IC50 Sufu-KO.
The mark [9] stands for this setting: Table 4, racemates and enantiomers, mean ± SEM, read-out: RT-qPCR, IC50 ASZ001.

This is an account of results in patent US20240299400A1, “Transcription Factor GLI1 Inhibitors and Uses Thereof” (University of Connecticut, priority 2023, published 2024).

As to `CCOc1cc(C(Nc2cc(C)ccn2)c2ccc3cccnc3c2O)ccc1OC` (racemic) [Compound 6], the “% Gli1 Expression” value in assay [1] (mean ± SEM) stood at 7.6 ± 0.9%. Moreover, the values for the IC50 in assay [1] (setting [4]), in assay [2] (setting [5]) and in assay [3] (setting [6]) were 3.1 ± 1.2 µM, 0.78 ± 0.16 µM and over 10 µM, respectively. For the same compound, in assay [3] (concentrations up to 10 μM), the “reduction of GLI1 expression in ASZ001 (in words)” value was “did not reduce GLI1 expression”.

For the compound `CCOc1ccc(C(Nc2ccccn2)c2ccc3ccc(C)nc3c2O)cc1` (racemic) [s16], the “% Gli1 Expression” value in assay [1] (mean ± SEM) was determined as 86.8 ± 5.7%.

`COc1ccc(C(Nc2cc(C)ccn2)c2ccc3cccnc3c2O)cc1O` (racemic) [Compound 5]: in assay [1] (mean ± SEM), the “% Gli1 Expression” value is recorded as 6.1 ± 0.6%. The IC50 in assay [1] (setting [4]) amounted to 1.8 ± 0.5 µM; in assay [2] (setting [5]), 0.63 ± 0.2 µM; in assay [3] (setting [6]) it was 7.1 ± 1.2 µM.

Consider `Cc1ccc2ccc(C(Nc3ccccn3)c3ccccc3Cl)c(O)c2n1` (racemic) [s12], for which the “% Gli1 Expression” value in assay [1] (mean ± SEM) worked out at 23.6 ± 2.8%.

In the case of `COc1ccc(C(Nc2ccccn2)c2ccc3ccc(C)nc3c2O)cc1C` (racemic) [s11], in assay [1] (mean ± SEM), the “% Gli1 Expression” value amounted to 62.1 ± 6.4%.

For the compound `COc1ccc(I)cc1C(Nc1cc(C)ccn1)c1ccc2cccnc2c1O` (racemic) [s19], in assay [1] (mean ± SEM), the “% Gli1 Expression” value is on record as over 100%.

As for `CCOc1cccc(C(Nc2cc(C)ccn2)c2ccc3cccnc3c2O)c1OC` (racemic) [s2], the “% Gli1 Expression” value in assay [1] (mean ± SEM) is 63.7 ± 7.2%.

As for `Cc1ccnc(NC(c2cc(C)ccc2C)c2ccc3cccnc3c2O)c1` (racemic) [Compound 3], the “% Gli1 Expression” value in assay [1] (mean ± SEM) was 10.0 ± 2.4%. Moreover, the IC50 in assay [1] (setting [4]) came out at 1.2 ± 0.4 µM; in assay [1] (setting [7]), 1.2 ± 0.4 µM; in assay [2] (setting [5]) it was 0.31 ± 0.21 µM; in assay [2] (setting [8]), 0.31 ± 0.21 µM; in assay [3] (setting [6]) it was 2.2 ± 0.9 µM; in assay [3] (setting [9]), 2.2 ± 0.9 µM.

As for `Oc1c(C(Nc2ccccn2)c2ccc(Cl)c(Cl)c2)ccc2cccnc12` (racemic) [Compound 7], the “% Gli1 Expression” value in assay [1] (mean ± SEM) was 4.2 ± 0.9%. The IC50 in assay [1] (setting [4]) is 0.57 ± 0.14 µM; in assay [1] (setting [7]), 0.57 ± 0.14 µM; in assay [2] (setting [5]), 0.48 ± 0.22 µM; in assay [2] (setting [8]), 0.48 ± 0.22 µM; in assay [3] (setting [6]), 2.8 ± 1.5 µM; in assay [3] (setting [9]), 2.8 ± 1.5 µM.

Turning to `CCOc1cccc(C(Nc2cc(C)ccn2)c2ccc3cccnc3c2O)c1C` (racemic) [s3], in assay [1] (mean ± SEM), the “% Gli1 Expression” value is 59.1 ± 11.9%.

For `CSc1ccc(C(Nc2cc(C)ccn2)c2ccc3cccnc3c2O)cc1` (racemic) [Compound 8], the “% Gli1 Expression” value in assay [1] (mean ± SEM) was 4.1 ± 1.1%. Further, the IC50 in assay [1] (setting [4]) is 0.98 ± 0.47 µM; in assay [2] (setting [5]) it was 1.3 ± 0.2 µM; in assay [3] (setting [6]), 4.5 ± 2.6 µM.

Regarding `Cc1ccc(NC(c2cccc(C)n2)c2ccc3cccnc3c2O)nc1` (stereo not shown) [s25], in assay [1] (mean ± SEM), the “% Gli1 Expression” value was over 100%.

On to `COc1ccc(C(Nc2ccccn2)c2ccc3cccnc3c2O)cc1[N+](=O)[O-]` (racemic) [Compound 13], for which the “% Gli1 Expression” value in assay [1] (mean ± SEM) was found to be 5.9 ± 0.3%. Further, the figures for the IC50 in assay [1] (setting [4]), in assay [2] (setting [5]) and in assay [3] (setting [6]) were 1 ± 0.3 µM, 1.7 ± 0.1 µM and 3.6 ± 1.1 µM, respectively.

`COc1ccc(C(Nc2ccccn2)c2ccc3ccc(C)nc3c2O)cc1` (racemic) [s18]: the “% Gli1 Expression” value in assay [1] (mean ± SEM) is recorded as over 100%.

Turning to `COc1cccc(C(Nc2cc(C)ccn2)c2ccc3cccnc3c2O)c1C` (racemic) [Compound 2], the “% Gli1 Expression” value in assay [1] (mean ± SEM) is listed as 7.0 ± 1.4%. Also, the IC50 in assay [1] (setting [4]) worked out at 0.76 ± 0.23 µM; in assay [2] (setting [5]) it was 0.99 ± 0.32 µM; in assay [3] (setting [6]) it was 5.8 ± 1.1 µM.
